Reference: patent US4883821A, “Agent for treating hyperuricemia” (Eisai Co., Ltd., priority 1988, dated 1989)
Where “and” joins values, the source holds several entries; their conditions need not be identical. Identical values can stand only once.

Tests used:
[1] = disclosed in Japanese Patent Laid-Open No. 210050/1986; cited from earlier work
Sic-SD rats = assay: acute toxicity test in rats; format: in vivo; conditions: oral, intraperitoneal and subcutaneous
Procedure: (§1) The acute toxicity test was carried out by oral, intraperitoneal and subcutaneous administration to 7- to 8-week old Sic-SD rats and Slc:ICr mice. The case of death was observed within 5 days from the start of the administration.

[2] = acute toxicity test in rats; format: in vivo; conditions: rat, in vivo
Procedure: as §1

[3] = acute toxicity test in mice; conditions: mouse, in vivo
Procedure: as §1

uric acid level in serum = assay: phase I clinical test: uric acid level in serum of healthy adult men (enzymatic method); format: in vivo
Procedure: Capsules containing 300 mg of the compound of the present invention, N-{3-[4"-(2",6"-dimethylheptyl)phenyl]butanoyl}ethanolamine, were administered to 5 healthy adult men for 7 days three times per day after meals. For comparison, a placebo was administered to two other healthy adult men. Thus, the phase I clinical test was conducted.
[…] With respect to the measured values, the significance test was conducted between the group to which the compound of the present invention was administered and the group to which the placebo was administered.
In the above table, each value indicates the uric acid level (mg/dl) in serum, and A through G in the column of "Healthy man" represent the adult men to whom the medicine was administered.

[4] = clinical use, prior art; cited from earlier work

In the case of `CC(C)CCCC(C)Cc1ccc(C(C)CC(=O)NCCO)cc1` (stereo not drawn) [compound of the present invention, N-{3-[4'-(2",6"-dimethylheptyl)phenyl]butanoyl}ethanolamine], the anticholesterolemic action [1] is given as “has an anticholesterolemic action”, the “time of death from the start of the administration” value (Sic-SD rats) is given as ≤ 5 days and the LD50 ([2]; ip, female, intraperitoneal) is given as 572 mg/kg. For the same compound, the LD50 ([2]; ip, male, intraperitoneal) was 1340 mg/kg, the LD50 ([2]; po, female) was 1910 mg/kg and the LD50 ([2]; po, male) was 4260 mg/kg. The LD50 ([2]; sc, female, subcutaneous) was 6350 mg/kg, the LD50 ([2]; sc, male, subcutaneous) was > 8000 mg/kg and the LD50 ([3]; ip, female, intraperitoneal) was 737 mg/kg. For the same compound, the LD50 ([3]; ip, male, intraperitoneal) was 792 mg/kg, the LD50 ([3]; po, female) was 4580 mg/kg and the LD50 ([3]; po, male) was > 2560 mg/kg. The LD50 ([3]; sc, female, subcutaneous) was > 5000 mg/kg, the LD50 ([3]; sc, male, subcutaneous) was > 5000 mg/kg and the “solubility in organic solvents” value (solubility; anhydrous ethanol, ethyl acetate, ethanol, chloroform, acetonitrile and n-hexane) was “Highly soluble”. The solubility in water (solubility; water) was “substantially insoluble”, the “accumulation of the medicinal effect” value (uric acid level in serum; after stop of administration) was “not observed” and the “uric acid level in serum when administration was stopped” value (uric acid level in serum; after stop of administration) was “promptly elevated to the value before the start of the administration”. The “average uric acid level in serum, 1st day” value (uric acid level in serum; average of men A-E, 1st day, before administration, placebo average 6.0) was 5.8 mg/dL, the “average uric acid level in serum, 4th day” value (uric acid level in serum; average of men A-E, 4th day, 300 mg three times per day, marked *, placebo average 5.7) was 3.1 mg/dL and the “average uric acid level in serum, 6th day” value (uric acid level in serum; average of men A-E, 6th day, 300 mg three times per day, marked *, placebo average 5.7) was 2.7 mg/dL. For the same compound, the “average uric acid level in serum, 8th day” value (uric acid level in serum; average of men A-E, 8th day, 300 mg three times per day for 7 days, marked *, placebo average 5.8) was 3.2 mg/dL, the “average uric acid level in serum, 11th day” value (uric acid level in serum; average of men A-E, 11th day, after 7 days of administration, placebo average 7.1) was 5.5 mg/dL and the “lowering in the uric acid level in serum” value (uric acid level in serum; fourth day) was “significant lowering in the uric acid level in serum was observed”. For the same compound, the “uric acid level in serum, 1st day” value (uric acid level in serum; individual healthy men A-E (one per line), 1st day, before administration, 300 mg capsules three times per day after meals, 7 days, listed as compound of present invention) was 4.9 mg/dL and 6.4 mg/dL and 5.9 mg/dL and 7.0 mg/dL and 4.7 mg/dL, the “uric acid level in serum, 4th day” value (uric acid level in serum; individual healthy men A-E (one per line), 4th day, 300 mg capsules three times per day after meals, 7 days, listed as compound of present invention) was 8.5 mg/dL and 2.9 mg/dL and 2.6 mg/dL and 3.6 mg/dL and 2.8 mg/dL and the “uric acid level in serum, 6th day” value (uric acid level in serum; individual healthy men A-E (one per line), 6th day, 300 mg capsules three times per day after meals, 7 days, listed as compound of present invention) was 3.0 mg/dL and 2.6 mg/dL and 2.4 mg/dL and 3.2 mg/dL and 2.5 mg/dL. The “uric acid level in serum, 8th day” value (uric acid level in serum; individual healthy men A-E (one per line), 8th day, 300 mg capsules three times per day after meals, 7 days, listed as compound of present invention) was 3.2 mg/dL and 3.1 mg/dL and 4.0 mg/dL and 2.7 mg/dL and the “uric acid level in serum, 11th day” value (uric acid level in serum; individual healthy men A-E (one per line), 11th day, after 7 days of 300 mg capsules three times per day after meals, listed as compound of present invention) was 4.8 mg/dL and 5.6 mg/dL and 7.2 mg/dL and 5.3 mg/dL.

For `Oc1ncnc2[nH]ncc12` [allopurinol], the adverse effects [4] is given as “causes efflorescence, gastrointestinal disorders, liver troubles and hematogenic organ troubles”.
